We go through 14 molecules from PubChem BioAssay (NCI).

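All cell lines were grown in 96-well plates and treated with compound for 48 hours. Definition used: TGI = concentration required for complete inhibition of growth.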 Bounds are passed on as bounds.

Among the test systems are BT-549 breast; DU-145 prostate; HOP-92 NSCLC; HT29 colon; K-562 leukemia; LOX IMVI melanoma; SK-OV-3 ovarian; U251 CNS; UACC-257 melanoma; UACC-62 melanoma.
Holding throughout (assay): growth of human tumour cells (NCI), 48 h

Turning to `COc1ccc(-c2oc3cc(OC)c(OC)c(O)c3c(=O)c2OC)cc1`, the TGI is 42 µM with BT-549 breast; over 100 µM in the assay on DU-145 prostate; 33.8 µM in the assay on HOP-92 NSCLC; over 100 µM in the assay on HT29 colon; over 100 µM in the assay on K-562 leukemia; over 100 µM in the assay with LOX IMVI melanoma. The TGI with SK-OV-3 ovarian is over 100 µM; in the assay with U251 CNS, over 100 µM; in the assay with UACC-257 melanoma it was over 100 µM; in the assay on UACC-62 melanoma, 84.4 µM.

Turning to `O=C1/C(=C\c2ccc(Br)cc2)CCCc2ccccc21`, the TGI in the assay with BT-549 breast was 55.9 µM; with DU-145 prostate, 49.4 µM; in the assay with HOP-92 NSCLC it was 39.8 µM; in the assay with HT29 colon, 30.4 µM; in the assay with K-562 leukemia, over 100 µM; in the assay with LOX IMVI melanoma, 29.9 µM. In addition, the TGI in the assay on SK-OV-3 ovarian was over 100 µM; in the assay with U251 CNS, 31.2 µM; in the assay with UACC-257 melanoma, 39.6 µM; with UACC-62 melanoma, 26.5 µM.

On to `O=c1[nH]ncc2[nH]c3c4ccccc4ccc3c12`, for which the TGI in the assay with BT-549 breast is over 100 µM; in the assay with DU-145 prostate, over 100 µM; in the assay with HOP-92 NSCLC, 87.1 µM; in the assay on HT29 colon, over 100 µM; with K-562 leukemia, over 100 µM; in the assay with LOX IMVI melanoma, over 100 µM. The TGI in the assay with SK-OV-3 ovarian was over 100 µM; with U251 CNS, 90.7 µM.

On to `Cc1ccc(S(=O)C[C@](NC(=O)OCc2ccccc2)(Sc2ccccc2)C(F)F)cc1` (stereo partly specified), for which the TGI with BT-549 breast was 50.9 µM; with DU-145 prostate, 45.6 µM; in the assay with HOP-92 NSCLC, 42.9 µM; in the assay on HT29 colon it was 31.1 µM; in the assay with K-562 leukemia it was over 100 µM; in the assay with LOX IMVI melanoma it was 19.4 µM. In addition, the TGI in the assay with SK-OV-3 ovarian worked out at 36 µM; with U251 CNS it was 35.5 µM; in the assay on UACC-257 melanoma, 31.5 µM; in the assay on UACC-62 melanoma, 29.9 µM.

In the case of `C[C@@H](C[C@H]1OC(C)(C)O[C@@H]1C(C)(C)O)[C@H]1CC=C2[C@]3(C)[C@H](O)C[C@H]4C(C)(C)[C@H](O)CC[C@]4(C)[C@H]3CC[C@]21C`, the TGI in the assay on BT-549 breast was determined as 22.4 µM; in the assay with DU-145 prostate, 28.7 µM; with HOP-92 NSCLC it was 13.6 µM; in the assay on HT29 colon, 8.23 µM; with K-562 leukemia, 13.9 µM; with LOX IMVI melanoma, 17.3 µM. The TGI was 20.6 µM in the assay on SK-OV-3 ovarian, 15 µM in the assay with U251 CNS, 20.4 µM in the assay with UACC-257 melanoma and 34 µM with UACC-62 melanoma.

`Cc1ccc2nc3n[nH]c(N)c3nc2c1`: the TGI in the assay on BT-549 breast, in the assay on DU-145 prostate, in the assay on HOP-92 NSCLC, with HT29 colon, in the assay on LOX IMVI melanoma and in the assay on SK-OV-3 ovarian was over 100 µM each time. Also, the TGI in the assay on U251 CNS, in the assay on UACC-257 melanoma and in the assay on UACC-62 melanoma was over 100 µM throughout.

In the case of `O=[N+]([O-])c1ccc(C2ON=C(c3ccccc3)N2C23CC4CC(CC(C4)C2)C3)cc1` (stereo unspecified), the TGI with BT-549 breast, in the assay with DU-145 prostate, with HOP-92 NSCLC, in the assay with HT29 colon, with K-562 leukemia and with LOX IMVI melanoma was over 10 µM in each case. In addition, the TGI with SK-OV-3 ovarian, with U251 CNS, with UACC-257 melanoma and with UACC-62 melanoma was over 10 µM in each case.

Take `N#Cc1c2ccc([N+](=O)[O-])cc2c(=O)n2c1[nH]c1ccc(C(F)(F)F)cc12`: the TGI was over 100 µM in the assay on BT-549 breast; over 100 µM with DU-145 prostate; 51.9 µM with HOP-92 NSCLC; over 47.4 µM in the assay with HT29 colon; 45.7 µM with K-562 leukemia; 45.6 µM with LOX IMVI melanoma. Also, the TGI in the assay with SK-OV-3 ovarian, in the assay on U251 CNS, in the assay with UACC-257 melanoma and in the assay on UACC-62 melanoma was over 100 µM throughout.

`Clc1ccc2c(NCCCCN3OC3c3ccccc3)ccnc2c1` (stereo unspecified): the TGI came out at 27 µM in the assay with BT-549 breast; 24.9 µM in the assay on DU-145 prostate; 25.8 µM in the assay with HOP-92 NSCLC; 10.9 µM in the assay with HT29 colon; 4.92 µM in the assay on K-562 leukemia; 5.67 µM with LOX IMVI melanoma. Further, the TGI in the assay with SK-OV-3 ovarian was found to be 34.5 µM; in the assay with U251 CNS it was 9.13 µM; in the assay with UACC-257 melanoma, 34.5 µM; with UACC-62 melanoma it was 27.1 µM.

Consider `Nc1nccc(NCC2(CO)CC(OCc3ccccc3)C2)n1` (stereo unspecified), for which the TGI with BT-549 breast, in the assay on DU-145 prostate, in the assay on HOP-92 NSCLC, in the assay on HT29 colon, in the assay with K-562 leukemia and in the assay with LOX IMVI melanoma was over 100 µM in each case. Moreover, the TGI in the assay on U251 CNS, in the assay with UACC-257 melanoma and with UACC-62 melanoma was over 100 µM throughout.

On to `Clc1ccc(-c2cc(-c3cc4cc(Br)ccc4nc3Cl)on2)cc1`, for which the TGI in the assay on BT-549 breast was over 50 µM; in the assay on DU-145 prostate it was over 50 µM; in the assay with HOP-92 NSCLC, over 50 µM; in the assay with HT29 colon, over 50 µM; in the assay on K-562 leukemia, over 50 µM; in the assay on LOX IMVI melanoma it was 21.4 µM. For the same molecule, the TGI is over 50 µM in the assay on SK-OV-3 ovarian, 46 µM in the assay on UACC-257 melanoma and over 50 µM in the assay with UACC-62 melanoma.

With `COc1cc(C2c3cc4c(cc3OC(NNS(=O)(=O)c3ccc(C)cc3)C2C)OCO4)cc(OC)c1OC` (stereo unspecified), the TGI in the assay on BT-549 breast is 45.6 µM; in the assay with DU-145 prostate it was over 100 µM; with HOP-92 NSCLC, 50.1 µM; in the assay with HT29 colon it was 5.38 µM; with LOX IMVI melanoma, over 100 µM; in the assay with SK-OV-3 ovarian, over 70.6 µM. For the same molecule, the TGI is 13.4 µM in the assay with U251 CNS, over 53.2 µM in the assay with UACC-257 melanoma and 20.3 µM in the assay on UACC-62 melanoma.

As to `CCCCc1ccc(-n2sc3ncc(-c4ccccc4)cc3c2=O)cc1`, the TGI with BT-549 breast, with DU-145 prostate, in the assay on HOP-92 NSCLC, in the assay on K-562 leukemia, in the assay on LOX IMVI melanoma and in the assay with SK-OV-3 ovarian was over 100 µM each time. Also, the TGI in the assay on U251 CNS and with UACC-62 melanoma was over 100 µM each time.

In the case of `COc1ccc2c(O)c(S(=O)(=O)c3ccc(C)cc3)c(=O)oc2c1OC`, the TGI in the assay on BT-549 breast, in the assay with DU-145 prostate, in the assay on HOP-92 NSCLC, in the assay with HT29 colon, with K-562 leukemia and with SK-OV-3 ovarian was over 100 µM each time. For the same molecule, the TGI in the assay with U251 CNS, with UACC-257 melanoma and with UACC-62 melanoma was over 100 µM in each case.
